Laboratory results from patent US7265129B2, “Anti-infective biaryl compounds” (priority 2002, dated 2007).

Columns and labels:
[1] = test system: E. faecalis ATCC 29212; experiment: MIC, NCCLS broth microdilution, E. faecalis; assay type: cell-based, Enterococcus faecalis
Source text: (§1) It vitro biological activity data were collected for a variety of microorganisms, including Bacillus cereus (ATCC 11778), Staphylococcus aureus (ATCC 33591; ATCC 27660, a methicillin resistant strain (MRSA); ATCC 13709, a methicillin sensitive strain (MSSA)), Enterococcus faecalis (ATCC 29212), and Streptococcus pneumoniae (ATCC 49619). Additionally, antifungal activity data were collected for Candida albicans (ATCC 38247).
(§2) Compounds according to this invention were screened for their in vitro activities against selected species of bacteria and fungi. The minimal inhibition concentration (MIC) of these compounds was determined using the National Committee for Clinical Laboratory Standards (NCCLS) broth microdilution assay in microtiter plates, as set forth in: (1) the guidelines of the National Committee for Clinical Laboratory Standards (NCCLS) Document M7-A4 (NCCLS, 1997); (2) the guidelines of the National Committee for Clinical Laboratory Standards (NCCLS) Document M11-A4 (NCCLS, 1997); and (3) the guidelines and reference method of the National Committee for Clinical Laboratory Standards (NCCLS) Document M27-T (NCCLS, 1995). For antifungal assays, the method recommended in Murray, P R., 1995 Manual of Clinical Microbiology (ASM Press, Washington, D.C.), was employed.

[2] = test system: S. aureus ATCC 27660; experiment: MIC, NCCLS broth microdilution, S. aureus MRSA; assay type: cell-based, Staphylococcus aureus; settings: S. aureus ATCC 27660, methicillin resistant strain (MRSA)
Source text: as §1, §2

[3] = test system: B. cereus ATCC 11778; experiment: MIC, NCCLS broth microdilution, B. cereus; assay type: cell-based, Bacillus cereus
Source text: as §1, §2

[4] = test system: S. aureus ATCC 13709; experiment: MIC, NCCLS broth microdilution, S. aureus MSSA; assay type: cell-based, Staphylococcus aureus; settings: S. aureus ATCC 13709, methicillin sensitive strain (MSSA)
Source text: as §1, §2

[5] = test system: S. aureus ATCC 33591; experiment: MIC, NCCLS broth microdilution, S. aureus ATCC 33591; assay type: cell-based, Staphylococcus aureus
Source text: as §1, §2

[6] = test system: C. albicans ATCC 38247; experiment: MIC, antifungal assay, C. albicans; assay type: cell-based, Candida albicans
Source text: as §1, §2

[7] = test system: S. pneumoniae ATCC 49619; experiment: MIC, NCCLS broth microdilution, S. pneumoniae; assay type: cell-based, Streptococcus pneumoniae
Source text: as §1, §2

Compound	Minimum Inhibitory Concentration (MIC), organism C [1]	Minimum Inhibitory Concentration (MIC), organism E [2]	Minimum Inhibitory Concentration (MIC), organism A [3]	Minimum Inhibitory Concentration (MIC), organism D [4]	Minimum Inhibitory Concentration (MIC), organism F [5]	Minimum Inhibitory Concentration (MIC), organism B [6]	Minimum Inhibitory Concentration (MIC), organism G [7]
Cc1cccc2nc(-c3cc(NC(=O)c4cc(NC(=O)c5cc6ccccc6cn5)cn4C)cn3C)[nH]c12 [Compound A-3]	>32 µg/mL	>32 µg/mL	>32 µg/mL	>32 µg/mL	>32 µg/mL	>32 µg/mL	>32 µg/mL
Cn1cc(NC(=O)c2cc3ccccc3cn2)cc1C(=O)Nc1cc(-c2nc3cc(O)ccc3[nH]2)n(C)c1 [Compound A-6]	+++ (MIC ≦ 4 μg/mL)	+++ (MIC ≦ 4 μg/mL)	+++ (MIC ≦ 4 μg/mL)	+++ (MIC ≦ 4 μg/mL)	+++ (MIC ≦ 4 μg/mL)	>32 µg/mL	+++ (MIC ≦ 4 μg/mL)
Cn1cc(NC(=O)c2cc3ccccc3cn2)cc1C(=O)Nc1cc(-c2nc3ccc(N)cc3[nH]2)n(C)c1 [Compound A-8]	+++ (MIC ≦ 4 μg/mL)	+++ (MIC ≦ 4 μg/mL)	++ (4 < MIC < 12 μg/mL)	+++ (MIC ≦ 4 μg/mL)	+++ (MIC ≦ 4 μg/mL)	>32 µg/mL	+++ (MIC ≦ 4 μg/mL)
Cn1cc(NC(=O)c2cc3ccccc3cn2)cc1C(=O)Nc1cc(-c2nc3ccc(OC(=O)CCN4CCOCC4)cc3[nH]2)n(C)c1 [Compound A-9]	+++ (MIC ≦ 4 μg/mL)	+++ (MIC ≦ 4 μg/mL)	+++ (MIC ≦ 4 μg/mL)	+++ (MIC ≦ 4 μg/mL)	+++ (MIC ≦ 4 μg/mL)	>32 µg/mL	+++ (MIC ≦ 4 μg/mL)
Cn1cc(NC(=O)c2cc3ccccc3cn2)cc1C(=O)Nc1cc(-c2nc3ccc(OCCN4CCOCC4)cc3[nH]2)n(C)c1 [Compound A-10]	+++ (MIC ≦ 4 μg/mL)	+++ (MIC ≦ 4 μg/mL)	+++ (MIC ≦ 4 μg/mL)	+++ (MIC ≦ 4 μg/mL)	+++ (MIC ≦ 4 μg/mL)	>32 µg/mL	+++ (MIC ≦ 4 μg/mL)
Cn1cc(NC(=O)c2cc3ccccc3cn2)cc1C(=O)Nc1cc(-c2nc3ccc(NC(=O)CCN4CCOCC4)cc3[nH]2)n(C)c1 [Compound A-11]	+++ (MIC ≦ 4 μg/mL)	+++ (MIC ≦ 4 μg/mL)	+++ (MIC ≦ 4 μg/mL)	+++ (MIC ≦ 4 μg/mL)	+++ (MIC ≦ 4 μg/mL)	>32 µg/mL	+++ (MIC ≦ 4 μg/mL)
CN(C)CCCn1cc(NC(=O)c2cc3ccccc3cn2)cc1C(=O)Nc1cc(-c2nc3ncccc3[nH]2)n(C)c1 [Compound A-12]	+++ (MIC ≦ 4 μg/mL)	+++ (MIC ≦ 4 μg/mL)	+++ (MIC ≦ 4 μg/mL)	+++ (MIC ≦ 4 μg/mL)	+++ (MIC ≦ 4 μg/mL)	>32 µg/mL	+++ (MIC ≦ 4 μg/mL)
CN(C)CCCn1cc(NC(=O)c2cc3ccccc3cn2)cc1C(=O)Nc1cc(-c2nc3ccncc3[nH]2)n(C)c1 [Compound A-13]	+++ (MIC ≦ 4 μg/mL)	+++ (MIC ≦ 4 μg/mL)	+++ (MIC ≦ 4 μg/mL)	+++ (MIC ≦ 4 μg/mL)	+++ (MIC ≦ 4 μg/mL)	>32 µg/mL	+++ (MIC ≦ 4 μg/mL)
Cn1cc(NC(=O)c2cc3ccccc3cn2)cc1C(=O)Nc1cc(-c2nc3ccncc3[nH]2)n(C)c1 [Compound A-14]	+++ (MIC ≦ 4 μg/mL)	+++ (MIC ≦ 4 μg/mL)	+++ (MIC ≦ 4 μg/mL)	+++ (MIC ≦ 4 μg/mL)	+++ (MIC ≦ 4 μg/mL)	>32 µg/mL	+++ (MIC ≦ 4 μg/mL)
CN(C)CCCn1cc(NC(=O)c2cc3ccccc3cn2)cc1C(=O)Nc1cc(-c2nc3ncncc3[nH]2)n(C)c1 [Compound A-15]	++ (4 < MIC < 12 μg/mL)	+ (12 ≦ MIC ≦ 32 μg/mL)	+ (12 ≦ MIC ≦ 32 μg/mL)	+ (12 ≦ MIC ≦ 32 μg/mL)	+ (12 ≦ MIC ≦ 32 μg/mL)	>32 µg/mL	+++ (MIC ≦ 4 μg/mL)
CN(C)CCCn1cc(NC(=O)c2ccc(F)cc2F)cc1C(=O)Nc1cc(-c2nc3ncccc3[nH]2)n(C)c1 [Compound A-17]	+++ (MIC ≦ 4 μg/mL)	+++ (MIC ≦ 4 μg/mL)	+++ (MIC ≦ 4 μg/mL)	+++ (MIC ≦ 4 μg/mL)	+++ (MIC ≦ 4 μg/mL)	>32 µg/mL	+++ (MIC ≦ 4 μg/mL)
COc1cc(F)ccc1C(=O)Nc1cc(C(=O)Nc2cc(-c3nc4ccccc4[nH]3)n(C)c2)n(CCCN(C)C)c1 [Compound A-20]	+++ (MIC ≦ 4 μg/mL)	+++ (MIC ≦ 4 μg/mL)	+++ (MIC ≦ 4 μg/mL)	+++ (MIC ≦ 4 μg/mL)		+ (12 ≦ MIC ≦ 32 μg/mL)	+++ (MIC ≦ 4 μg/mL)
COc1cc(Cl)ccc1C(=O)Nc1cc(C(=O)Nc2cc(-c3nc4ccccc4[nH]3)n(C)c2)n(CCCN(C)C)c1 [Compound A-21]	+++ (MIC ≦ 4 μg/mL)	+++ (MIC ≦ 4 μg/mL)	+++ (MIC ≦ 4 μg/mL)	++ (4 < MIC < 12 μg/mL)		+ (12 ≦ MIC ≦ 32 μg/mL)	+++ (MIC ≦ 4 μg/mL)
CN(C)CCCn1cc(NC(=O)c2sc3ccccc3c2Cl)cc1C(=O)Nc1cc(-c2nc3ccccc3[nH]2)n(C)c1 [Compound A-22]	++ (4 < MIC < 12 μg/mL)	++ (4 < MIC < 12 μg/mL)	+++ (MIC ≦ 4 μg/mL)	++ (4 < MIC < 12 μg/mL)		+ (12 ≦ MIC ≦ 32 μg/mL)	++ (4 < MIC < 12 μg/mL)
